Assay results from patent US7119077B1, “Multimeric forms of members of the steroid/thyroid superfamily of receptors with the ultraspiracle receptor” (The Salk Institute for Biological Studies, priority 1990, dated 2006).
Entries after “also recorded” stand apart in the source; their conditions may differ.

Assays:
EcR/usp [1] = experiment: Cotransfection CAT reporter assay with EcR and/or usp expression vectors in CV1 cells; format: cell-based, monkey kidney cells (CV1); details: 40 μM
Description: (§1) Transfection was performed with calcium-phosphate precipitation method as described previously [Umesono et al., Nature 336:262–264 (1989)]. CV1 monkey kidney cells were maintained in Dulbecco's modified Eagle's medium (DMEM) supplemented with 10% calf bovine serum. The cells were transfected for 8–9 hours and then the DNA precipitates were washed away and replaced with fresh medium with 10% charcoal-resin double stripped fetal bovine serum. 20-hydroxy-ecdysone (Sigma; 10 mg/ml in ethanol), or ethanol alone was then given to the cells. 24–28 hours later, the cells were harvested. Beta-galactosidase (βGal) activity was measured and a normalized amount of extract was used for CAT assay (Umesono et al. (1989) supra]. The following amount of plasmid DNA was included in the 10 cm plate transfection: 250 ng each of CMX-EcR and RSV-GEcR; 500 ng of CMX-usp; 5 μg ΔMTV-EcRE5-CTA; 5 μg of βGal internal control plasmid CH111 (a derivative of CH110, Promega). The amount of CMX plasmid was kept constant in each transfection by adding CMX-luciferase. PGEM4 was added to bring the total amount of plasmid DNA to 15 μg per plate.
(§2) Ecdysone response in CV1 cells was determined by using an ecdysone-responsive reporter gene (ΔMTV-EcRE5-CAT), which contains the same core hsp27-EcRE motif tested in DNA binding assay described earlier. The chloramphenicol acetyl transferase (CAT) activity induced by ecdysone was measured in the presence of different combinations of transfected EcR and usp expression vectors. CAT activity is expressed in FIG. 2 as the percentage of conversion which is normalized against the level in EcR alone at the presence of ecdysone assigned as one (column 1, shaded rectangle). The final concentration of 20-hydroxy-ecdysone (Sigma) is 40 μM. […] Cotransfection of EcR and usp together is shown in column 3 and the induction of CAT activity could be observed by about 3 fold.
(§3) To test whether usp can complement the EcR activity as it did in the DNA binding assay, usp expression vector was cotransfected with EcR into CV1 cells. Cotransfection of usp with EcR indeed was able to confer a significant response to 20-OH-ecdysone (over 3 fold, FIG. 2A). […] The level of induction by EcR and usp in CV1 cells is significant but somewhat lower than expected compared with the interaction in DNA binding assay.

EcR/usp [2] = target: T1, EcR/usp (Drosophila melanogaster, UniProt P34021); experiment: as above; format: cell-based, monkey kidney cells (CV1); details: CV1 cells transfected with EcR alone, ΔMTV-EcRE5-CAT reporter, 40 μM
T1 construct: expressed in transfected cells; host or cells: CV1 monkey kidney cells
T1 sequence (P34021 1-878): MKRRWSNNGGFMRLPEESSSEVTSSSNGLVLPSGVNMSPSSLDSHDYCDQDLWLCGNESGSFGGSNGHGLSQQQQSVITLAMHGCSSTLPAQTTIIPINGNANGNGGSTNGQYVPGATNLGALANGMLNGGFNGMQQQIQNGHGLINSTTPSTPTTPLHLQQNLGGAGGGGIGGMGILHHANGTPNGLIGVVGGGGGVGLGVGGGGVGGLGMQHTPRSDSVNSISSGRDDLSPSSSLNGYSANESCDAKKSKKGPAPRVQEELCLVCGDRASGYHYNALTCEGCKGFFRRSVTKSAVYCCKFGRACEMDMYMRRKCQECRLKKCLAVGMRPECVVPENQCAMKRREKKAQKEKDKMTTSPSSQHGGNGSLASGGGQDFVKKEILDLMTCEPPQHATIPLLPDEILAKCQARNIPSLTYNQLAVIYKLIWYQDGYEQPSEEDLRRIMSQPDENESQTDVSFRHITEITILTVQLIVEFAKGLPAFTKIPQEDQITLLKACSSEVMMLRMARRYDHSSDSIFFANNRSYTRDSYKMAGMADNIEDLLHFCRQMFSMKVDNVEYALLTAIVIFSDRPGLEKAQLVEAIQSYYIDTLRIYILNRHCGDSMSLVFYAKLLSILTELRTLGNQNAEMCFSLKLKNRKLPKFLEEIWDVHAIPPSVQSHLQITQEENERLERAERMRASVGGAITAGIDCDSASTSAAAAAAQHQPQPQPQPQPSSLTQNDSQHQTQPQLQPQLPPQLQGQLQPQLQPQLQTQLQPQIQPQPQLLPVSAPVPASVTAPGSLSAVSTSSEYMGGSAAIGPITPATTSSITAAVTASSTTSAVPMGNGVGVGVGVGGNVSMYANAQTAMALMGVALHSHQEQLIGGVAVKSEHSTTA
Description: as §1, §2, §3

20-Hydroxyecdysone [20-OH-ecdysone]
ecdysone responsiveness (CAT activity) (EcR/usp [1]; CV1 cells transfected with usp alone, ΔMTV-EcRE5-CAT reporter): does not respond; also recorded: did not result in ecdysone responsiveness
ecdysone responsiveness (CAT activity) (EcR/usp [1]; CV1 cells, parental ΔMTV-CAT reporter without EcRE): did not result in ecdysone responsiveness
ecdysone responsiveness (CAT activity) (EcR/usp [1]; CV1 cells, parental ΔMTV-CAT reporter without EcRE, listed as ecdysone): does not respond
ecdysone responsiveness (CAT activity) (EcR/usp [2]): does not respond
ecdysone responsiveness (CAT activity) (EcR/usp [2]; listed as 20-hydroxy-ecdysone): failed to confer responsiveness
